Consider 6 compounds from patent US7816339B2, “Treatments for Flaviviridae virus infection” (priority 2005, dated 2010).

Broadly, the CC50 is the concentration at which the toxic effect on the cells reaches its halfway point.

Type in all cases: cell-based
Data set [1] has as its system replicon RNA (amplicon in NS5B), luciferase replicon cell line. As to the kind of experiment: Taqman assay of replicon RNA level in replicon cells. Particulars: Taqman real-time PCR, 2 days incubation; for IC50: 48 h, GADPH RNA as endogenous control, read-out: IC50: drug dose necessary to reach a 2-fold decrease in replicon RNA level. As for the experimental part: (§1) Cell Culture. Cells of the luciferase replicon cell line (Vrolijk et al., J. Virol. Methods 110:201-209 (2003)) was grown in Dulbecco's minimal essential medium (DMEM) supplemented with 2 mM glutamine, non-essential amino acids (NEAA), 10 mM HEPES, 0.075% sodium bicarbonate, 100 U/ml penicillin and 100 μg/mL streptomycin, and 10% fetal bovine serum. To maintain the selection for replicon, 0.3 mg/mL of G418 were added to the culture media.
Taqman Assay Method. Replicon cells were seeded at 4000 cells/well in 96-well collagen 1-coated Biocoat Plates (Becton Dickinson). Twenty-four hours post-seeding, compounds were added to replicon cells. The final concentration of DMSO was 0.5%, fetal bovine serum was 10%, and no G418 was added. Cells were incubated with compounds for 2 days, at which point the cells were washed with PBS and lysed in 1× cell lysis buffer (Ambion). The replicon RNA level was measured using real time PCR (Taqman assay). The amplicon was located in NS5B. The PCR primers were 5B.2F, ATGGACAGGCGCCCTGA; 5B.2R, […]; the probe sequence was FAM-labeled CACGCCATGCGCTGCGG. GADPH RNA was used as an endogenous control and was amplified in the same reaction as NS5B (multiplex PCR) using primers and VIC-labeled probe recommended by the manufacturer (PE Applied Biosystem). The real-time RT-PCR reactions were run on the ABI PRISM 7900HT Sequence Detection System using the following program: 48° C. for 30 minutes, 95° C. for 10 minutes, 40 cycles of 95° C. for 15 seconds, 60° C. for 1 minute. The ACT values (CT5B-CTGADPH) were plotted against drug concentration and fitted to the sigmoid dose response model using SAS system (SAS Institute, Inc.) or PRISM software (Graphpad Software, Inc.). IC50 was the drug dose response necessary to achieve an increase of 1 in ΔCT over the projected baseline. IC90 was the drug dose response necessary to achieve an increase of 3.2 over the baseline. All Taqman reagents were from PE Applied Biosystem.
(§2) IC50: drug dose necessary to reach a 2-fold decrease in replicon RNA level. IC90: drug dose necessary to reach a 10-fold decrease in replicon RNA level EC50: drug dose necessary to reach a 2-fold decrease in luciferase signal. EC90: drug dose necessary to reach a 10-fold reduction in luciferase signal. CC50: drug dose necessary to reduce the MTS signal to 50% of that of no drug control TI: CC50/EC50 in 5-2 cells. All units are μM.
Background: In qPCR the cycle at which signal appears reflects the starting amount.

The next data set has as its system replicon cells. As to the kind of experiment: Cell toxicity assay (MTS) on replicon cells. Particulars: for TI: CC50/EC50 in 5-2 cells: ratio CC50/EC50, 5-2 cells; for CC50: MTS assay on replicon cells, read-out: CC50: drug dose necessary to reduce the MTS signal to 50% of that of no drug control. The method, then: (§3) Cell toxicity assay. The toxicity of compounds on the replicon cells were measured by MTS assay following manufacturer's instructions (Promega). Briefly, 20 μl of CellTiter 96®RAQueous One Solution Reagent were added to each well of the 96-well plate containing 100 μl of culture medium. The plates were incubated for 30-60 minutes before reading OD by DYNEX MRX.
as §2
(In general: In antiviral work, replicon cells carry a viral genome segment that copies itself.)

A short description of data set [2]: Cell toxicity assay (MTS) on replicon cells. To be noted: human; MTS assay on replicon cells; read-out: CC50: drug dose necessary to reduce the MTS signal to 50% of that of no drug control. The method, then: as §3, §2
For data set [3], the system named is replicon (luciferase signal), luciferase replicon cell line. As to the kind of experiment: Dose-response luciferase assay in replicon cells. To be noted: 2 days incubation, 0.5% DMSO, 10% fetal bovine serum; for EC50: 48 h, read-out: EC50: drug dose necessary to reach a 2-fold decrease in luciferase signal. The method, then: as §1
Dose-Response and Luciferase Assays. Replicon cells were seeded at 5000 cells/well in 96-well collagen 1-coated Biocoat plates (Becton Dickinson; Palo Alto, Calif.). Twenty-four hrs post-seeding, compounds (see Table 1 below) were added to replicon cells. The final concentration of DMSO was 0.5%, fetal bovine serum was 10%, and G418 was not added. The cells were incubated with the compounds for 2 days, at which point the cells were washed with PBS and lysed in 40 μl Glo Lysis Buffer (Promega; Madison, Wis.). 20 μl of lysates were mixed with 100 μl Luciferase Assay Reagent (Promega) and read on a Microtiter Plate Luminometer MLX (DYNEX Technologies; Chantilly, Va.). The fold of reduction in luciferase signal compared to no compound control was plotted against drug concentration and fitted to the sigmoid dose response model using PRISM software (Graphpad Software Inc.; San Diego, Calif.).
as §2

On to `O=c1nc(/N=C/N2CCOCC2)ccn1[C@@H]1O[C@H](CO)C(O)C1O` (stereo in doubt) [XII, N^4-[Morpholinomethylene]arabinocytidine], for which, in data set [1], the IC50 is above 10 µM and the “IC90: drug dose necessary to reach a 10-fold decrease in replicon RNA level” value is given as above 10 μM. The “TI: CC50/EC50 in 5-2 cells” value with replicon cells is above 500. For the same compound, in data set [2], the CC50 at 2 days was above 10 µM. Besides, in data set [3], the EC50 worked out at 0.02 µM and the “EC90: drug dose necessary to reach a 10-fold reduction in luciferase signal” value was 1.5 μM.
For `Nc1ccn([C@@H]2O[C@H](CO)[C@@H](O)[C@@H]2O)c(=O)n1` [Cytarabine, reference compound], in data set [1], the IC50 was around 10 µM and the “IC90: drug dose necessary to reach a 10-fold decrease in replicon RNA level” value is above 10 μM. In the data set on replicon cells, the “TI: CC50/EC50 in 5-2 cells” value is above 200. For the same compound, in data set [2], the half-maximal cytotoxic concentration (CC50) at 2 days is above 10 µM. Further, in data set [3], the EC50 is 0.05 µM and the “EC90: drug dose necessary to reach a 10-fold reduction in luciferase signal” value stood at 4 μM.
For the compound `NC(=O)c1ncn([C@@H]2O[C@H](CO)[C@@H](O)[C@H]2O)n1` [Ribavirin, 1-β-D-ribofuranosyl-1H-1,2,4-triazole-3-carboxamide, reference compound], in data set [1], the IC50 lay within 40 to 100 µM and the “IC90: drug dose necessary to reach a 10-fold decrease in replicon RNA level” value is given as “not reached”. Besides, in the data set on replicon cells, the “TI: CC50/EC50 in 5-2 cells” value is recorded as around 25. In data set [2], the CC50 at 2 days is around 500 µM. For the same compound, in data set [3], the EC50 was determined as 20 µM and the “EC90: drug dose necessary to reach a 10-fold reduction in luciferase signal” value came out at 80 μM.
As for `CC(C)N(C=Nc1ccn([C@@H]2O[C@H](CO)[C@@H](O)[C@@H]2O)c(=O)n1)C(C)C` [X, N^4-[(Diisopropylamino)methylene]arabinocytidine], in data set [1], the “IC90: drug dose necessary to reach a 10-fold decrease in replicon RNA level” value is above 10 μM. Further, in the data set on replicon cells, the 50% cytotoxic concentration (CC50) was above 10 µM and the “TI: CC50/EC50 in 5-2 cells” value is recorded as above 300. Moreover, the “EC90: drug dose necessary to reach a 10-fold reduction in luciferase signal” value in data set [3] was determined as 2 μM.
`O=c1nc(N=CN2CCCCC2)ccn1[C@@H]1O[C@H](CO)[C@@H](O)[C@@H]1O` [XI, N^4-[Piperidinomethylene]arabinocytidine]: in data set [1], the “IC90: drug dose necessary to reach a 10-fold decrease in replicon RNA level” value is recorded as above 10 μM. Besides, in the data set on replicon cells, the CC50 was above 10 µM and the “TI: CC50/EC50 in 5-2 cells” value is on record as above 100. Also, the “EC90: drug dose necessary to reach a 10-fold reduction in luciferase signal” value in data set [3] came out at 8 μM.
For `O=c1nc(N=CN2CCCC2)ccn1[C@@H]1O[C@H](CO)[C@@H](O)[C@@H]1O` [XIII, N^4-[Pyrrolidinomethylene]arabinocytidine], the “IC90: drug dose necessary to reach a 10-fold decrease in replicon RNA level” value in data set [1] was above 10 μM. Moreover, in the data set on replicon cells, the CC50 is above 10 µM and the “TI: CC50/EC50 in 5-2 cells” value is on record as above 100. Besides, in data set [3], the “EC90: drug dose necessary to reach a 10-fold reduction in luciferase signal” value came to 5 μM.
